# According to patent publication US20240174680A1, “CDK2 INHIBITORS AND METHODS OF USING THE SAME” (Cedilla Therapeutics, Inc., priority 2021, published 2024):
# Target: CDK2/Cyclin E1 (Homo sapiens, UniProt P24941)
# Assay: CDK2/Cyclin E1 Caliper LabChip EZ Reader mobility shift assay
# Type: biochemical
# Parameters: purchased Eurofins 14-475
# Details: read-out: Caliper Assay (CDK2/CCNE1): IC50
# Method in brief: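 Mobility-shift kinase assay: compound titrations preincubated 30 min with enzyme and ATP, reaction started with 5-FAM-QSPKKG-CONH2 peptide. Final 2.5 nM CDK2/Cyclin E1, 100 μM ATP, 1.5 μM peptide, HEPES pH 7.5; stopped with EDTA after 100 min. IC50 from four-parameter fit of normalized conversion ratio.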
row,IC50 [nM],Structure (SMILES)
1,≤ 10,COC[C@H]1CCCN(C(=O)[C@@H](NC(=O)[C@@H]2CN(C(=O)c3cncs3)CC23CN(C(=O)[C@H]2CC2(C)C)C3)[C@@H](C)OCc2ccc(F)cc2)C1 [I-318]
2,1000 to 10000,CNC(=O)[C@@H](NC(=O)[C@H]1CN(C(=O)c2cncs2)CC12CN(C(=O)[C@H]1CC1(C)C)C2)[C@@H](C)OCC1CCCCC1 [I-129B]
3,100 to 1000,CNC(=O)[C@@H](NC(=O)[C@@H]1CN(C(=O)c2cnn(Cc3ccccc3)c2)CC12CN(C(=O)C1(C3CC3)CC1)C2)[C@@H](C)OCc1ccccc1 [I-114A]
4,≤ 10,CNC(=O)[C@@H](NC(=O)[C@@H]1CN(C(=O)c2cncs2)CC12CN(C(=O)[C@H]1CC1(C)C)C2)[C@@H](C)OCC1CCC2(CC1)CC2 [I-355]
5,> 10000,CNC(=O)[C@@H](NC(=O)[C@H]1CN(Cc2cnn(Cc3ccccc3)c2)CC12CN(C(=O)[C@H]1CC1(C)C)C2)[C@@H](C)OCc1ccccc1 [I-16B]
6,> 10000,CNC(=O)[C@@H](NC(=O)[C@H]1CN(C(=O)c2cnc(C(C)(C)C)s2)CC12CN(C(=O)[C@H]1CC1(C)C)C2)[C@@H](C)OCC1CCCCC1 [I-229B]
7,> 10000,COC(=O)[C@@H](CO)NC(=O)[C@@H]1CN(C(=O)c2cnn(Cc3ccccc3)c2)CC12CN(C(=O)[C@H]1CC1(C)C)C2 [I-187A]
8,10 to 100,C[C@@H](OCC1CCOCC1)[C@H](NC(=O)[C@@H]1CN(C(=O)c2cn[nH]c2)CC12CN(C(=O)[C@H]1CC1(C)C)C2)C(=O)N1CCC(F)(F)CC1 [I-297]
9,≤ 10,CC(O[C@H](C)[C@H](NC(=O)[C@@H]1CN(C(=O)c2cncs2)CC12CN(C(=O)[C@H]1CC1(C)C)C2)C(=O)N1CCC(F)(F)CC1)C1CCC(F)(F)CC1 (some centres unmarked) [I-361]
10,10 to 100,CNC(=O)[C@@H](NC(=O)[C@@H]1CN(C(=O)c2cnn(Cc3ccccc3)c2)CC12CN(C(=O)[C@H]1CC1(C)C)C2)[C@@H](C)OC[C@H]1CC[C@@H](O)CC1 [I-424]
11,> 10000,CC1(C)C[C@@H]1C(=O)N1CC2(CN(C(=O)c3cnn(Cc4ccccc4)c3)C[C@H]2C(=O)N2CCO[C@H](Cc3ccccc3)C2)C1 [I-255]
12,100 to 1000,CNC(=O)C(NC(=O)[C@@H]1CN(C(=O)c2cncs2)CC12CN(C(=O)[C@H]1CC1(C)C)C2)c1cccc(N2CCCCC2)n1 (some centres unmarked) [I-432]
13,10 to 100,CNC(=O)[C@@H](NC(=O)[C@H]1CN(C(=O)c2cnn(Cc3ccccc3)c2)CC12CN(C(=O)[C@H]1CC1(C)C)C2)[C@@H](C)OCCC1CCCCC1 [I-125B]
14,> 10000,CNC(=O)[C@@H](NC(=O)[C@H]1CN(C(=O)c2cnn(CC3CCOCC3)c2)CC12CN(C(=O)[C@H]1CC1(C)C)C2)[C@@H](C)OCc1ccccc1 [I-95B]
15,> 10000,COCCNC(=O)[C@@H]1CN(C(=O)c2cnn(Cc3ccccc3)c2)CC12CN(C(=O)[C@H]1CC1(C)C)C2 [I-122A]
16,> 10000,CNC(=O)[C@@H](NC(=O)[C@@H]1CN(Cc2cnn(C)c2)CC12CN(C(=O)[C@H]1CC1(C)C)C2)[C@@H](C)OCc1ccccc1 [I-47A]
17,≤ 10,C[C@@H](OCC12CCC(CC1)OC2)[C@H](NC(=O)[C@@H]1CN(C(=O)c2cncs2)CC12CN(C(=O)[C@H]1CC1(C)C)C2)C(=O)N1CCC[C@H](COC(F)F)C1 [I-461]
18,100 to 1000,CC1(C)C[C@@H]1C(=O)N1CC2(CN(C(=O)c3cnn(Cc4ccccc4)c3)C[C@H]2C(=O)Nc2ccc(-c3ccccc3)cc2)C1 [I-81A]
19,> 10000,CNC(=O)[C@@H](NC(=O)[C@H]1CN(C(=O)c2cnn(Cc3ccccc3)c2)CC12CN(C(=O)C1CC1(C)C)C2)[C@@H](C)O (some centres unmarked) [I-88B]
20,1000 to 10000,[2H]C([2H])([2H])NC(=O)C(NC(=O)[C@@H]1CN(C(=O)c2cncs2)CC12CN(C(=O)[C@H]1CC1(C)C)C2)c1cccc(N2CCOCC2)n1 (some centres unmarked) [I-18]
21,> 10000,CNC(=O)[C@@H](NC(=O)[C@H]1CN(C(=O)c2cnn(Cc3ccccc3)c2)CC12CN(C(=O)Cc1ccccc1)C2)[C@@H](C)OCc1ccccc1 [I-25B]
22,1000 to 10000,CNC(=O)[C@@H](NC(=O)[C@@H]1CN(C(=O)c2cnn(Cc3ccccc3)c2)CC12CN(C(=O)C(C)(C)C#N)C2)[C@@H](C)OCc1ccccc1 [I-76A]
23,≤ 10,COC[C@H]1CCCN(C(=O)[C@@H](NC(=O)[C@@H]2CN(C(=O)c3cncs3)CC23CN(C(=O)[C@H]2CC2(C)C)C3)[C@@H](C)OC(C)C2CCC(F)(F)CC2)C1 (some centres unmarked) [I-360]
24,> 10000,Cc1ccc(CNC(=O)[C@@H]2CN(C(=O)c3cnc(Cc4ccccc4)s3)CC23CN(C(=O)[C@H]2CC2(C)C)C3)nn1 [I-405]
25,≤ 10,C[C@@H](OCC1CCC(F)(F)CC1)[C@H](NC(=O)[C@@H]1CN(C(=O)c2cncs2)CC12CN(C(=O)[C@H]1CC1(C)C)C2)C(=O)N1CCC2(CC1)CC2 [I-380]

row,IC50 [nM],Structure (SMILES)
1,10 to 100,CNC(=O)[C@@H](NC(=O)[C@@H]1CN(C(=O)c2cnn(Cc3ccc(F)cc3)c2)CC12CN(C(=O)[C@H]1CC1(C)C)C2)[C@@H](C)OCc1ccc(F)cc1 [I-136A]
2,10 to 100,CNC(=O)[C@@H](NC(=O)[C@@H]1CN(C(=O)c2cncs2)CC12CN(C(=O)[C@H]1CC1(C)C)C2)[C@@H](C)OCC1CCCCC1 [I-129A]
3,≤ 10,C[C@@H](OCC1CCC(F)(F)CC1)[C@H](NC(=O)[C@@H]1CN(C(=O)c2cnn(Cc3ccc(F)cc3)c2)CC12CN(C(=O)[C@H]1CC1(C)C)C2)C(N)=O [I-203]
4,> 10000,CNC(=O)[C@@H](NC(=O)[C@@H]1CN(Cc2cnn(Cc3ccccc3)c2)CC12CN(C(=O)[C@H]1CC1(C)C)C2)[C@@H](C)OCc1ccccc1 [I-16A]
5,> 10000,CNC(=O)[C@@H](NC(=O)[C@@H]1CN(C(=O)Cc2cnn(C)c2)CC12CN(C(=O)[C@H]1CC1(C)C)C2)[C@@H](C)OCc1ccccc1 [I-384]
6,≤ 10,COC[C@H]1CCCN(C(=O)[C@@H](NC(=O)[C@@H]2CN(C(=O)c3cncs3)CC23CN(C(=O)[C@H]2CC2(C)C)C3)[C@@H](C)OC(C)C2CCCCC2)C1 (some centres unmarked) [I-374]
7,≤ 10,C[C@@H](OCC1CCCCC1)[C@@H](COC1CCC(F)(F)CC1)NC(=O)[C@@H]1CN(C(=O)c2cnn(Cc3ccccc3)c2)CC12CN(C(=O)[C@H]1CC1(C)C)C2 [I-271]
8,10 to 100,C[C@@H](OCc1ccccc1)[C@H](NC(=O)[C@@H]1CN(C(=O)c2cnn(Cc3ccccc3)c2)CC12CN(C(=O)[C@H]1CC1(C)C)C2)C(N)=O [I-176A]
9,100 to 1000,CNC(=O)[C@@H](NC(=O)[C@@H]1CN(C(=O)c2cnn(C)c2)CC12CN(C(=O)[C@H]1CC1(C)C)C2)[C@@H](C)OCc1ccccc1 [I-33A]
10,100 to 1000,C[C@@H](OCC1CCCCC1)[C@@H](CO)NC(=O)[C@H]1CN(C(=O)c2cnn(Cc3ccccc3)c2)CC12CN(C(=O)[C@H]1CC1(C)C)C2 [I-135B]
11,≤ 10,COC[C@H]1CCCN(C(=O)[C@@H](NC(=O)[C@H]2CN(C(=O)c3cncs3)CC23CN(C(=O)[C@H]2CC2(C)C)C3)[C@@H](C)OCC2CCCCC2)C1 [I-196B]
12,10 to 100,CNC(=O)[C@@H](NC(=O)[C@@H]1CN(C(=O)c2sc(Cl)nc2C)CC12CN(C(=O)[C@H]1CC1(C)C)C2)[C@@H](C)OCC1CCCCC1 [I-208A]
13,≤ 10,COC(=O)[C@@H](NC(=O)[C@@H]1CN(C(=O)c2cnn(Cc3ccccc3)c2)CC12CN(C(=O)[C@H]1CC1(C)C)C2)[C@@H](C)OCC1CCCCC1 [I-475]
14,1000 to 10000,CNC(=O)[C@@H](NC(=O)[C@@H]1CN(C(=O)c2cnn(Cc3ccccc3)c2)CC12CN(C(=O)C1(CCF)CC1)C2)[C@@H](C)OCc1ccccc1 [I-117A]
15,≤ 10,"C[C@@H](OCC12CCC(CC1)OC2)[C@H](NC(=O)[C@@H]1CN(C(=O)c2cncs2)CC12CN(C(=O)[C@H]1CC1(C)C)C2)C(=O)N1CCC(C(F)(F)F)CC1 [I-454, (S)—N-((2S,3R)-3-((2-oxabicyclo[2.2.2]octan-4-yl)methoxy)-1-oxo-1-(4-(trifluoromethyl)piperidin-1-yl)butan-2-yl)-2-((S)-2,2-dimethylcyclopropane-1-carbonyl)-6-(thiazole-5-carbonyl)-2,6-diazaspiro[3.4]octane-8-carboxamide]"
16,100 to 1000,CNC(=O)[C@@H](NC(=O)[C@@H]1CN(C(=O)c2cnn(Cc3ccccc3)c2)CC12CN(C(=O)CC(C)(C)C)C2)[C@@H](C)OCc1ccccc1 [I-62A]
17,> 10000,Cc1ccc(CNC(=O)[C@@H]2CN(C(=O)c3cnn(Cc4ccccn4)c3)CC23CN(C(=O)[C@H]2CC2(C)C)C3)nn1 [I-417]
18,> 10000,"CNC(=O)[C@@H](NC(=O)[C@@H]1CN(C(=O)c2cnn(Cc3ccccc3)c2)CC12CN(C(=O)Cc1ccccc1)C2)[C@@H](C)OCc1ccccc1 [I-25A, (S)-6-(1-benzyl-1H-pyrazole-4-carbonyl)-N-((2S,3R)-3-(benzyloxy)-1-(methylamino)-1-oxobutan-2-yl)-2-(2-phenylacetyl)-2,6-diazaspiro[3.4]octane-8-carboxamide]"
19,> 10000,CNC(=O)[C@@H](NC(=O)[C@H]1CN(C(=O)c2scnc2C)CC12CN(C(=O)[C@H]1CC1(C)C)C2)[C@@H](C)OCC1CCCCC1 [I-160B]
20,≤ 10,C[C@@H](OCC1CCCCC1)[C@H](NC(=O)[C@@H]1CN(C(=O)c2cnn(Cc3ccccc3)c2)CC12CN(C(=O)[C@H]1CC1(C)C)C2)C(=O)N1CC2(CNC2)C1 [I-240]
21,100 to 1000,CNC(=O)[C@@H](NC(=O)[C@@H]1CN(C(=O)c2cnn(Cc3ccccc3)c2)CC12CN(C(=O)C1(F)CC1)C2)[C@@H](C)OCc1ccccc1 [I-71A]
22,1000 to 10000,CC1(C)C[C@@H]1C(=O)N1CC2(CN(C(=O)c3cnn(Cc4ccccc4)c3)C[C@@H]2C(=O)Nc2ccc(Cc3ccccc3)cc2)C1 [I-84B]
23,> 10000,CNC(=O)[C@@H](NC(=O)[C@@H]1CN(S(=O)(=O)c2cnn(Cc3ccccc3)c2)CC12CN(C(=O)[C@H]1CC1(C)C)C2)[C@@H](C)OCc1ccccc1 [I-79A]
24,10 to 100,C[C@@H](OCC1(C(F)(F)F)CC1)[C@H](NC(=O)[C@H]1CN(C(=O)c2cncs2)CC12CN(C(=O)[C@H]1CC1(C)C)C2)C(=O)N1CCCCC1 [I-292]
25,10 to 100,C[C@@H](OCC12CCC(CC1)OC2)[C@H](NC(=O)[C@@H]1CN(C(=O)c2cncs2)CC12CN(C(=O)[C@H]1CC1(C)C)C2)C(=O)N1CCC(OC(F)(F)F)CC1 [I-457]
